Assay results taken from the NIST ThermoML archive (doi:10.1021/je100888h).

Assays:
[1] = 101 kPa, Liquid
[2] = xn = mol fraction of the nth substance listed; conditions: 101 kPa, Liquid

Cc1ccccc1O [2-methylphenol]
Conditions	mass density [kg/m3]
[1], 303.15 K	1036.94

Cc1ccccc1O [2-methylphenol] + CCCCCCCC
[2], 303.15 K
Conditions	mass density [kg/m3]
x2 = 0.0779	998.31
x2 = 0.1634	958.43
x2 = 0.2569	918.23
x2 = 0.299	901.26
x2 = 0.36	877.71
x2 = 0.4277	853.18
x2 = 0.4797	835.08
x2 = 0.5787	803.61
x2 = 0.6607	779.19
x2 = 0.7664	750.13
x2 = 0.8032	740.51
x2 = 0.9143	713.35

Cc1ccccc1O [2-methylphenol] + Cc1ccccc1
[2], 303.15 K
Conditions	mass density [kg/m3]
x2 = 0.0529	1027.55
x2 = 0.0849	1021.91
x2 = 0.1409	1011.86
x2 = 0.203	1000.75
x2 = 0.2749	987.89
x2 = 0.341	975.95
x2 = 0.4343	959.13
x2 = 0.5187	943.88
x2 = 0.6073	927.88
x2 = 0.6873	913.43
x2 = 0.7547	901.26
x2 = 0.7852	895.73
x2 = 0.8381	886.24
x2 = 0.8481	884.43
x2 = 0.9068	873.9
x2 = 0.9346	869.01
x2 = 0.9737	862.08

Cc1ccccc1O [2-methylphenol] + O
[2], 303.15 K
Conditions	mass density [kg/m3]
x1 = 0.5953	1033.22
x1 = 0.675	1034.33
x1 = 0.8012	1035.55
x1 = 0.8184	1035.9
x1 = 0.8443	1036.16
x1 = 0.8903	1036.47
x1 = 0.8909	1036.26
x1 = 0.9409	1036.95

Cc1cccc(O)c1 [3-methylphenol]
Conditions	mass density [kg/m3]
[1], 303.15 K	1025.95

Cc1cccc(O)c1 [3-methylphenol] + CCCCCCCC
[2], 303.15 K
Conditions	mass density [kg/m3]
x2 = 0.1197	970.59
x2 = 0.2473	916.86
x2 = 0.3868	864.19
x2 = 0.5012	825.55
x2 = 0.6387	783.91
x2 = 0.7818	745.29
x2 = 0.8773	721.91

Cc1cccc(O)c1 [3-methylphenol] + Cc1ccccc1
[2], 303.15 K
Conditions	mass density [kg/m3]
x2 = 0.0563	1016.89
x2 = 0.0853	1012.17
x2 = 0.1619	999.57
x2 = 0.2521	984.6
x2 = 0.3053	975.73
x2 = 0.3799	963.22
x2 = 0.4494	951.45
x2 = 0.5205	939.49
x2 = 0.7198	905.42
x2 = 0.8129	889.49
x2 = 0.8723	879.32
x2 = 0.9534	865.4

Cc1cccc(O)c1 [3-methylphenol] + O
[2], 303.15 K
Conditions	mass density [kg/m3]
x1 = 0.547	1020.94
x1 = 0.5754	1021.37
x1 = 0.6312	1022.09
x1 = 0.6558	1022.4
x1 = 0.704	1022.95
x1 = 0.7933	1023.97
x1 = 0.7997	1024.04
x1 = 0.8215	1024.36
x1 = 0.845	1024.52
x1 = 0.8635	1024.3
x1 = 0.8759	1024.67
x1 = 0.8839	1024.94
x1 = 0.9231	1025.3
x1 = 0.9426	1025.49
x1 = 0.9703	1025.78

Cc1ccc(O)cc1 [4-methylphenol]
Conditions	mass density [kg/m3]
[1], 303.15 K	1025.9

Cc1ccc(O)cc1 [4-methylphenol] + Cc1ccccc1
[2], 303.15 K
Conditions	mass density [kg/m3]
x2 = 0.0588	1016.31
x2 = 0.1156	1007.12
x2 = 0.1715	997.89
x2 = 0.2813	979.91
x2 = 0.3882	962.16
x2 = 0.4914	944.32
x2 = 0.5885	929.7
x2 = 0.6906	912.26
x2 = 0.775	897.37
x2 = 0.8337	887.52
x2 = 0.886	877.87
x2 = 0.962	864.24

Cc1ccc(O)cc1 [4-methylphenol] + O
[2], 303.15 K
Conditions	mass density [kg/m3]
x1 = 0.548	1020.42
x1 = 0.6243	1021.77
x1 = 0.6758	1022.35
x1 = 0.74	1023.33
x1 = 0.7976	1023.92
x1 = 0.8897	1025.1

CCCCCCCC [octane]
Conditions	mass density [kg/m3]
[1], 303.15 K	694.52

Oc1ccccc1 [phenol]
Conditions	mass density [kg/m3]
[1], 313.15 K	1058.3

Oc1ccccc1 [phenol] + Cc1ccccc1
[2], 313.15 K
Conditions	mass density [kg/m3]
x2 = 0.0999	1033.8
x2 = 0.1576	1021.66
x2 = 0.2581	998.46
x2 = 0.3492	978.14
x2 = 0.4363	959.22
x2 = 0.5438	936.46
x2 = 0.6351	917.72
x2 = 0.7288	898.99
x2 = 0.8334	878.75
x2 = 0.9015	865.97

Oc1ccccc1 [phenol] + O
[2], 313.15 K
Conditions	mass density [kg/m3]
x1 = 0.3794	1038.84
x1 = 0.4653	1042.74
x1 = 0.6176	1048.12
x1 = 0.7052	1050.69
x1 = 0.8247	1054.06
x1 = 0.9099	1056.28

Cc1ccccc1 [toluene]
[1]
Conditions	mass density [kg/m3]
303.15 K	857.47
313.15 K	848.07
